Like-named read-outs stand apart in the source and are kept apart here.
Columns and labels:
[1] = target: T1, Na^+, K^+ -ATPase receptor (Canis lupus familiaris, UniProt P50997); assay: displacement of the specific 3H-oubain binding from the Na+, K+-ATPase receptor; details: 3H-oubain displacement from purified Na+,K+-ATPase; read-out: Binding ^3 H-oubain displacement -log IC50 (converted)
T1 construct: Na^+, K^+ -ATPase receptor purified according to Jorghensen; from tissue
Text: (§1) To test the affinity for the receptor site of the Na^+, K^+ -ATPase and the agonist or inhibitory activity on the enzyme, the following tests were used:
a) displacement of the specific ^3 H-oubain binding from the Na^+, K^+ -ATPase receptor purified according to Jorghensen (Jorghensen P., BBA, 1974, 356, 36) and Erdmann (Erdmann E. et al., Arzneim. Forsh, 1984, 34,1314);

[2] = target: T2, purified Na^+, K^+ -ATPase (Canis lupus familiaris, UniProt P50997); assay: inhibition of the activity of the purified Na+, K+-ATPase (% of hydrolysis of 32P-ATP); assay type: biochemical
T2 construct: Na^+, K^+ -ATPase receptor purified according to Jorghensen; from tissue
Text: as §1
b) inhibition of the activity of the purified Na^+, K^+ -ATPase measured as % of hydrolysis of ^32 P-ATP in the presence and in the absence of the tested compound (Doucet A. et al., Am. J. Physiol., 1986, 251, F851).

[3] = tested on: Na^+, K^+ -ATPase; details: reported in DE 4,227,626; cited from earlier work
[4] = tested on: Na^+, K^+ -ATPase; details: reported in DE 4,227,626; cited from earlier work; remark: listed apart in the source
[5] = purified Na+,K+-ATPase, 32P-ATP hydrolysis, read-out: Inhibitory activity -log IC50 (converted)

Compound | IC50 [1] | IC50 [2] | IC50 [2, 5] | inhibition of the enzyme Na^+, K^+ -ATPase [3] | affinity for Na^+, K^+ -ATPase [4]
CN(C)CCCON=C[C@H]1CC[C@H]2[C@@H]3CC=C4C[C@@H](O)CC[C@]4(C)[C@H]3CC[C@]12C (mixture of isomers) [I-l, (EZ)-17β-(3-dimethylaminopropoxyiminomethyl)-androst-5-en-3β-ol] | 1.26 µM | 25.1 µM |  |  | 
C[C@]12CC[C@H]3[C@@H](CC=C4C[C@@H](O)CC[C@@]43C)[C@@H]1CC[C@@H]2C=NOCCCCN (mixture of isomers) [I-n, (EZ)-17β-(4-aminobutoxyiminomethyl)-androst-5-en-3β-ol] | 2 µM |  | 20 µM |  | 
CC12CCC(O)CC1CCC1C2CCC2(C)C(C=NO)CCC12O (stereo not drawn) [17-hydroxyiminomethyl-5β-androstan-3β-14β-diol] |  |  |  | inhibit the enzyme | good affinity
CN(C)CCO/N=C/[C@H]1CC[C@H]2[C@@H]3CC[C@@H]4C[C@@H](OCCN5CCCC5)CC[C@]4(C)[C@H]3CC[C@]12C [I-b, (E)-17β-[2-dimethylaminoethoxyiminomethyl]-3β-[2-(1-pirrolidinyl)ethoxy]-5β-androstane] | 0.501 µM | 7.94 µM |  |  | 
C[C@]12CC[C@H]3[C@@H](CC=C4C[C@@H](O)CC[C@@]43C)[C@@H]1CC[C@@H]2/C=N/OCCN [I-e, (E)-17β-(2-aminoethoxyiminomethyl)-androst-5-en-3β-ol] | 0.158 µM |  | 2 µM |  | 
CN(C)CCO/N=C/[C@H]1CC[C@H]2[C@@H]3CC=C4C[C@@H](O)CC[C@]4(C)[C@H]3CC[C@]12C [I-f, (E)-17β-[2-dimethylaminoethoxyiminomethyl]-androst-5-en-3β-ol] | 5.01 µM | 79.4 µM |  |  | 
C[C@]12CC[C@H]3[C@@H](CC=C4C[C@@H](O)CC[C@@]43C)[C@@H]1CC[C@@H]2/C=C/C=N/OCCN [I-g, (E,E)-17β-[3-(2-aminoethoxyimino)-1-propenyl]-androst-5-en-3β-ol] | 0.251 µM |  | 1.58 µM |  | 
CN(C)CCO/N=C/C=C/[C@H]1CC[C@H]2[C@@H]3CC=C4C[C@@H](O)CC[C@]4(C)[C@H]3CC[C@]12C [I-h, (E,E)-17β-[3-(2-dimethylaminoethoxyimino)-1-propenyl]-androst-5-en-3β-ol] | 1 µM | 5.01 µM |  |  | 
CN(C)CCCO/N=C/C=C/[C@H]1CC[C@H]2[C@@H]3CC=C4C[C@@H](O)CC[C@]4(C)[C@H]3CC[C@]12C [I-i, (E,E)-17β-[3-(3-dimethylaminopropoxyimino)-1-propenyl]-androst-5-en-3β-ol] | 0.631 µM | 2.51 µM |  |  | 
C[C@]12CC[C@H]3[C@@H](CC=C4C[C@@H](O)CC[C@@]43C)[C@@H]1CC[C@@H]2/C=N/OCCCN [I-m, (E)-17β-(3-aminopropoxyiminomethyl)-androst-5-en-3β-ol] | 0.398 µM | 3.98 µM |  |  | 
